According to article PMC6430017, “Structural and chemical insights into the covalent-allosteric inhibition of the protein kinase Akt” (Chemical Science, 2019):

What was measured:
Assay in all cases: SelectScreen Z'LYTE kinase profiling
Type in all cases: biochemical
Conditions in all cases: ATP at apparent KM
ITK = target: T1, ITK (Homo sapiens, UniProt Q08881)
T1 sequence (Q08881 1-620): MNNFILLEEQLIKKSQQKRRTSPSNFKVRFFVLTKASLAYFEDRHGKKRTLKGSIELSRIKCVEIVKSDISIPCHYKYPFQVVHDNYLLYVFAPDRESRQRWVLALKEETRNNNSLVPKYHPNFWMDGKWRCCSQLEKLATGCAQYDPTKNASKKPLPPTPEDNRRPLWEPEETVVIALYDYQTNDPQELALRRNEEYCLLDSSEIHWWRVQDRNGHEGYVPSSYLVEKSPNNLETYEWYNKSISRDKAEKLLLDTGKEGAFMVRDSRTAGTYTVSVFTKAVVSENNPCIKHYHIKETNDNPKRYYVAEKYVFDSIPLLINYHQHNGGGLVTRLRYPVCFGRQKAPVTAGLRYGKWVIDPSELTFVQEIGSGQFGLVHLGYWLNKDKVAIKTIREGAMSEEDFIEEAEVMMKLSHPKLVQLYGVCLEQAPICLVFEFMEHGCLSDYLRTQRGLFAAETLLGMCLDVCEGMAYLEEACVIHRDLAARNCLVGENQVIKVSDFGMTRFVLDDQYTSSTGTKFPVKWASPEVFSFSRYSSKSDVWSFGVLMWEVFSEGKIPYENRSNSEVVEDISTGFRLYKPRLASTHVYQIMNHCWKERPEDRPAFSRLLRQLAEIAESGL
Description: (§1) protein kinases at a compound concentration of 1 µM. Measurements were performed in duplicates
(§2) and at the particular apparent ATP KM of each individual kinase employing the activity based Z’LYTE®
(§3) kinase assay of the SelectScreen® Kinase Profiling Services (ThermoFisher Scientific).
(§4) kinases at a compound concentration of 1 µM. Measurements were performed in duplicates and at
(§5) the particular apparent ATP KM of each individual kinase employing the activity based Z’LYTE® kinase
(§6) assay of the SelectScreen® Kinase Profiling Services (ThermoFisher Scientific).

AMPK A1/B1/G1 = AMPK A1/B1/G1 (Homo sapiens, UniProt Q13131)
Description: as §1, §2, §3, §4, §5, §6

PRKG1 = target: T2, PRKG1 (Homo sapiens, UniProt Q13976)
T2 sequence (Q13976 1-671): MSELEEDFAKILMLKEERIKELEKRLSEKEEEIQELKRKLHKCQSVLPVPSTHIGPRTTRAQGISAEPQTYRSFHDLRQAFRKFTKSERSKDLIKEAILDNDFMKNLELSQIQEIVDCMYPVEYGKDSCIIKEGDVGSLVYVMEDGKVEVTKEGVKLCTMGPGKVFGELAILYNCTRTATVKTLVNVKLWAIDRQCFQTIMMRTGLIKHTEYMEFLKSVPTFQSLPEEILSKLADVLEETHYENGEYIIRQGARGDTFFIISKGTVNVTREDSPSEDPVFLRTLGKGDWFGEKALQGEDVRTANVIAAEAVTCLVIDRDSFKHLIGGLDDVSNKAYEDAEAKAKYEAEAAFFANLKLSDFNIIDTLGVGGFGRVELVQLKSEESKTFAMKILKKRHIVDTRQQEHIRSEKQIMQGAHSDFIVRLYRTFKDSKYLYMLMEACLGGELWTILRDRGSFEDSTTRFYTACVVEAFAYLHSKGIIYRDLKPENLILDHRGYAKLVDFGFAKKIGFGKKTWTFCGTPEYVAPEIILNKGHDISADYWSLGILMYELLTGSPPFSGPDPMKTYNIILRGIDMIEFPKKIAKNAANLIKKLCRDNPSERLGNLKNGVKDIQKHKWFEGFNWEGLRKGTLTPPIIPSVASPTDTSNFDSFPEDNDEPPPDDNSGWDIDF

CDC42 BPB (MRCKB) = CDC42 BPB (MRCKB) (Homo sapiens, UniProt Q9Y5S2)
Description: as §1, §2, §3, §4, §5, §6

FLT3 = target: T3, FLT3 (Homo sapiens, UniProt P36888)
T3 sequence (P36888 27-993): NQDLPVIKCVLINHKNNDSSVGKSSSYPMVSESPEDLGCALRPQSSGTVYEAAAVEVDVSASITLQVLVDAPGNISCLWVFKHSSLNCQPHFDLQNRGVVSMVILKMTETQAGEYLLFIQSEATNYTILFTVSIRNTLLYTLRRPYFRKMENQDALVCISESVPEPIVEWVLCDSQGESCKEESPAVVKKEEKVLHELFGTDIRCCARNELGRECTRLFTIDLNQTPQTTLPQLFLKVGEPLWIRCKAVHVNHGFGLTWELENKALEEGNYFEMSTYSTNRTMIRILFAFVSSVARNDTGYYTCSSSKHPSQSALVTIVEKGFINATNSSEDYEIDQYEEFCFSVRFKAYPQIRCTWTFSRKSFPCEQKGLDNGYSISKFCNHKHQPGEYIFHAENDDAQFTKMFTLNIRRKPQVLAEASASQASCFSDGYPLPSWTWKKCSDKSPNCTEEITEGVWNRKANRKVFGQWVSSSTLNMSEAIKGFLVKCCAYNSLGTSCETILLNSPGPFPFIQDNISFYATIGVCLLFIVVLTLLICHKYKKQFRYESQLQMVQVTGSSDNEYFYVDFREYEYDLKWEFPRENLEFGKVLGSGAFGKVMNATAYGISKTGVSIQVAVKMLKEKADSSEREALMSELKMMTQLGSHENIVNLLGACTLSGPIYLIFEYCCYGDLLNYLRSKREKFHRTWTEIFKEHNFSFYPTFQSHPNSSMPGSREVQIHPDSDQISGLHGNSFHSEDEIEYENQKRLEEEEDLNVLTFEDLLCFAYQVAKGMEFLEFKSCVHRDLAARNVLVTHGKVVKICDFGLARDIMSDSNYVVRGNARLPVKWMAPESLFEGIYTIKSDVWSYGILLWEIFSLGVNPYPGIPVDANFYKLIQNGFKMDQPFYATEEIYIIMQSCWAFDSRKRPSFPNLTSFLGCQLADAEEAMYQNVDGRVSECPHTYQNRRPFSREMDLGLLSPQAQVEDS
Description: as §1, §2, §3, §4, §5, §6

PRKCH (PKC eta) = PRKCH (PKC eta) (Homo sapiens, UniProt P24723)
PRKCH (PKC eta), sequence (P24723 whole entry): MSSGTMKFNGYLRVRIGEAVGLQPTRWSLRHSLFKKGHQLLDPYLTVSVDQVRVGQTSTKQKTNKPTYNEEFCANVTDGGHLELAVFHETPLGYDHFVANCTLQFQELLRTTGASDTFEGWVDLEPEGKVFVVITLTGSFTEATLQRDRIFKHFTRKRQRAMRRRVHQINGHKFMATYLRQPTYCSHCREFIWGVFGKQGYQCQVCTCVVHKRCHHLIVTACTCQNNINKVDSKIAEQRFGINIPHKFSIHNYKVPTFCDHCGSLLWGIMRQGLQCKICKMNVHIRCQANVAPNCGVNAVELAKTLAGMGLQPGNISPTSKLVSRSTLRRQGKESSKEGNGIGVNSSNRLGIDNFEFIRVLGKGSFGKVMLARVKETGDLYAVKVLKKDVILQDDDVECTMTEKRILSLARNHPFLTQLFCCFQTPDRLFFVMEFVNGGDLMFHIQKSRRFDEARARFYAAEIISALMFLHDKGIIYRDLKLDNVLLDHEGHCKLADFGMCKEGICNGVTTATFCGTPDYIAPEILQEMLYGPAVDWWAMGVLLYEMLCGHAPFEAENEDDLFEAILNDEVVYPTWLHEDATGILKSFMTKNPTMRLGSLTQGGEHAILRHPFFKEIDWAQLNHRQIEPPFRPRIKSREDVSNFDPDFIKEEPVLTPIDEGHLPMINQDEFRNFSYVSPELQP
Description: as §1, §2, §3, §4, §5, §6

CDC42 BPB (MRCKB), sequence (Q9Y5S2 whole entry): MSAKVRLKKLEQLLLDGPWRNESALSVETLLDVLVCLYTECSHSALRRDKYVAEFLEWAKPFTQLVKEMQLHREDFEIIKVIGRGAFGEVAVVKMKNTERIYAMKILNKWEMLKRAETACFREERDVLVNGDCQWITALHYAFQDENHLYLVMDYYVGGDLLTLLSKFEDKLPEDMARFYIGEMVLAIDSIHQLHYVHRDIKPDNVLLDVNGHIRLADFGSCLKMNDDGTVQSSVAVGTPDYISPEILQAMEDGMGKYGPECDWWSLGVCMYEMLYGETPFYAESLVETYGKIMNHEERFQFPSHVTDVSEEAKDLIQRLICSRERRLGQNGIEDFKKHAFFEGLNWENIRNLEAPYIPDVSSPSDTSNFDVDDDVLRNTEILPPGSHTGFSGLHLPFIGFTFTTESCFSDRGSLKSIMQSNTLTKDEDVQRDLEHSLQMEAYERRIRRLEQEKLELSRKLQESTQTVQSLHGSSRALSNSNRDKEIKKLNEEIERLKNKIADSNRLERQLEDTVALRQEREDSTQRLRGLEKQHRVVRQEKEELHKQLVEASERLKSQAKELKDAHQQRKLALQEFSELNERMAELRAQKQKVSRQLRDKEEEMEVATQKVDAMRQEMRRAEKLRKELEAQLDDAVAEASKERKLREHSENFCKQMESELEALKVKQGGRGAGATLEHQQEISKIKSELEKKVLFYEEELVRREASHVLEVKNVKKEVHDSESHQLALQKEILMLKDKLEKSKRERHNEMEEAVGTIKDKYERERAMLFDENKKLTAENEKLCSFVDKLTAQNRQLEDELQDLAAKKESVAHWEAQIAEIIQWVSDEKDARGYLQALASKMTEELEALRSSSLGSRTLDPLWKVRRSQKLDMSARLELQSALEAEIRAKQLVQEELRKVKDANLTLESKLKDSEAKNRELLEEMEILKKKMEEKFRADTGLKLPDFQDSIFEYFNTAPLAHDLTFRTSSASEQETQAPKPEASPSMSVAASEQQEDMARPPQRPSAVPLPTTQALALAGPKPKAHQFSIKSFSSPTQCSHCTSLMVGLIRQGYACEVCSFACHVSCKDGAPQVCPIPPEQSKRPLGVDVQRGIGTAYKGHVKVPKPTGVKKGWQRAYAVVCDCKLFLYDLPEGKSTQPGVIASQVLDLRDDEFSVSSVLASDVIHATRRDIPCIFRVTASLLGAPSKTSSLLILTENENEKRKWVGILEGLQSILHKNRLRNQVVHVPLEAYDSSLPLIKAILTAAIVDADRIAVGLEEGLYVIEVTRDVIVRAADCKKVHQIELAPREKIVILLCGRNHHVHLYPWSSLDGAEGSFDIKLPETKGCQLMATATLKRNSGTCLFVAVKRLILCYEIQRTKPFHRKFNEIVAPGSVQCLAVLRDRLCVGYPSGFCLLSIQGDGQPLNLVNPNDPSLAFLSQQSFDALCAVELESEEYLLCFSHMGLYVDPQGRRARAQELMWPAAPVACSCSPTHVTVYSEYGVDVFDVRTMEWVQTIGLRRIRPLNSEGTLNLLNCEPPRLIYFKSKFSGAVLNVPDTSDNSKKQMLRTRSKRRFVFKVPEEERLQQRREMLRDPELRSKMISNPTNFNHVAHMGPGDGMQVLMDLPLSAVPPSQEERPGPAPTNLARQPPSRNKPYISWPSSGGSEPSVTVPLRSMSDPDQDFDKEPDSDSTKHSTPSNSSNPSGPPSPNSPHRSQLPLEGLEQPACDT
AMPK A1/B1/G1, sequence (Q13131 whole entry): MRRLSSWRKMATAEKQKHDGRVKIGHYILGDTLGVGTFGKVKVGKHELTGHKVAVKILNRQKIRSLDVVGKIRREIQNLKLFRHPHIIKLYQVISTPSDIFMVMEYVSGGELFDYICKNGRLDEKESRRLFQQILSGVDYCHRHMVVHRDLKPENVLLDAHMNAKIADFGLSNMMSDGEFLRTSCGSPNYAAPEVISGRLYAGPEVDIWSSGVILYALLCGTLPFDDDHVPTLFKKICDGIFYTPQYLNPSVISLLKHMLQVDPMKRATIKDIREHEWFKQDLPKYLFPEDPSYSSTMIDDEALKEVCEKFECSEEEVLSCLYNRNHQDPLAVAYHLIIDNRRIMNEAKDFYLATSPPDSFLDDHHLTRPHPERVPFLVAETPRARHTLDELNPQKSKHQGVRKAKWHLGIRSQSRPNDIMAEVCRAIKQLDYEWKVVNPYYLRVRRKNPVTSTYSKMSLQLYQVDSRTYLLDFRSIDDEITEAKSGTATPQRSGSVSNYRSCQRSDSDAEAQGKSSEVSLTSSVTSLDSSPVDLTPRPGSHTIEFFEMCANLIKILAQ
AMPK A1/B1/G1, sequence (Q9Y478 whole entry partner): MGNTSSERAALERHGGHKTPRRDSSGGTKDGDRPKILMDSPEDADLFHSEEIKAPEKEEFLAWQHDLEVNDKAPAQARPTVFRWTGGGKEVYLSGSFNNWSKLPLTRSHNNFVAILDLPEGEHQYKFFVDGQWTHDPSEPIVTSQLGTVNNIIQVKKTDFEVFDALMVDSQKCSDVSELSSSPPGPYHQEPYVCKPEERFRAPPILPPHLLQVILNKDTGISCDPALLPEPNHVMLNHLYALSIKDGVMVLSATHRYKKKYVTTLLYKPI
AMPK A1/B1/G1, sequence (P54619 whole entry partner): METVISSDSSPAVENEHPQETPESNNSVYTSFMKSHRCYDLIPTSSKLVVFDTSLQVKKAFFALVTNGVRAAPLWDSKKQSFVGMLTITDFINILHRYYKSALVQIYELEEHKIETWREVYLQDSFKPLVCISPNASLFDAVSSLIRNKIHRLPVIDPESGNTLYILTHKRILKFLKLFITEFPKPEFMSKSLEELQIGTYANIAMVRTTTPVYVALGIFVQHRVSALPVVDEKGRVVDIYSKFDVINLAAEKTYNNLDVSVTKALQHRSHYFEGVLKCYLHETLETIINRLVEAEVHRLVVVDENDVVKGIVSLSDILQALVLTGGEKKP

| Compound | inhibition at 1 µM (ITK) [%] | inhibition at 1 µM (AMPK A1/B1/G1) [%] | inhibition at 1 µM (PRKG1) [%] | inhibition at 1 µM (CDC42 BPB (MRCKB)) [%] | inhibition at 1 µM (FLT3) [%] | inhibition at 1 µM (PRKCH (PKC eta)) [%] |
| --- | --- | --- | --- | --- | --- | --- |
| C=CC(=O)Nc1cc(NC(=O)NC2CCN(Cc3ccc(-c4nc5cc[nH]c(=O)c5cc4-c4ccccc4)cc3)CC2)ccc1Cl [compound 27] | 8 | 76 | 11 | 12 | 14 | 21 |
| C=CC(=O)Nc1cccc(C(=O)NC2CCN(Cc3ccc(-c4nc5cc[nH]c(=O)c5cc4-c4ccccc4)cc3)CC2)c1 [30b] | 1 | 46 | 10 | -27 | 14 | 14 |
| C=CC(=O)Nc1ccc2c(c1)n(C1CCN(Cc3ccc(-c4nc5cc[nH]c(=O)c5cc4-c4ccccc4)cc3)CC1)c(=O)n2C [24b] | -9 | 17 | 6 | 3 | 7 | 7 |
